Patent US9895390B2, “Methods and assays for combination treatment of cancer” (CHILDREN'S MEDICAL CENTER CORPORATION, priority 2012, dated 2018)
“Also recorded” adds a separate entry of the source.

Tests used:
human NSCLC lines = assay: Growth rates over 10 day time-course (Cell Titer Glo), 12 cell lines; assay type: cell-based; conditions: 1 μM DZNep, 10 day time-course
Method: FIG. 2A depicts a Western Blot for EZH2 and H3K27me3 performed on whole cell extracts 4 days after indicated treatments, β-actin shown as a loading control. FIG. 2B depicts a graph of the growth rates of matched shGFP and shGFP cells treated with 1 μM DZNep and assayed by Cell Titer Glo at days 3, 5, 7, and 10 post plating at equal densities. Average luminescence ±s.e.m. for 3 replicate wells is shown based on when each shGFP cell line reached logarithmic growth, * indicates p<0.03. FIG. 2C depicts a graph of the response to Etoposide. Cell lines were plated at equal densities and treated a range of etoposide doses with or without 1 μM DZNep. On the 4th day, cell viability was measured using Cell Titer Glo and the percent survival at each dose of etoposide was calculated. Dose response curves were generated for the no DZNep and DZNep treated cells using the GraphPad prism software and IC50s were extrapolated. The fold change±s.e.m. of etoposide IC50 in response to DZNep is plotted, n=4 biological replicates, * indicates p<0.05. Cell lines with mutations in Brg1, EGFR and B-Raf are indicated.

[1] = tested on: sensitized and protected NSCLC cell lines; assay: 7AAD cell cycle flow cytometry; assay type: cell-based, human
Method: Cell lines were plated at 1.5×10^6 cells per 10 cm plate and treated with drug for 4 days. Cells were then dissociated, fixed with 100% ice cold Ethanol for at least 2 hours, incubated for 30 minutes with 1 mg/mL RNase A and resuspended in 20 μg/mL 7AAD. 30,000 events were collected on the BD Facscalibur™ and analyzed with the ModFit LT™ software. In cases where etoposide treated cells had such abnormal ploidy that ModFit LT™ was unable to correctly model the cell cycle, the data was analyzed manually on FlowJo™ software by setting the gates on the etoposide sample and copying them to the etoposide+DZNep and etoposide shEZH2 samples.
For 7AAD-cell cycle analysis, cell lines were plated at 1.5×10^6 cells per 10 cm plate and treated with drug for 4 days. Cells were then dissociated, fixed with 100% ice cold Ethanol for at least 2 hours, incubated for 30 minutes with 1 mg/mL DNase-free RNase A (Thermo) and resuspended in 20 μg/mL 7-Aminoactinomycin D (7AAD; Invitrogen). 30,000 events were collected on the BD FORTESSA™ and analyzed with the MODFIT LT™ software. Results from three to four independent biological replicate experiments were averaged for each cell line.

H157 xenografts = assay: Xenograft tumor growth in nude mice; assay type: in vivo, Foxn1nu (nude) mice
Method: (§1) To determine if the protected and sensitized phenotypes could be observed in vivo, cells were transplanted subcutaneously, tumors allowed to initiate, and mice treated with etoposide and DZNep. 12 days after cell injection, tumor bearing mice were randomized into groups that received either etoposide (20 mg/kg/day) or placebo (corn oil) daily for five days. The cohorts were further subdivided into groups that also received DZNep, either 2 mg/kg/day twice during the first week (dosing scheme A), or 1 mg/kg/day twice during the first two weeks (dosing scheme B).
(§2) Cell lines were dissociated into single cells, counted and resuspended at 1×10^6 cells per 250 μL of 1:1 media/matrigel (BD). 8- to 16-week-old Foxn1nu (nude) mice (Harlan) were injected subcutaneously with 1×10^6 cells in four spots on flanks. Chemo and DZNep were administered from day 12 to day 17 post injections, Etoposide: 20 mg/kg/day i.p. in corn oil once per day for 5 consecutive days, and DZNep 2 mg/kg/day i.p. in corn oil twice per week for 1 week (dosing scheme A) OR 1 mg/kg/day i.p. in corn oil twice per week for 2 weeks (dosing scheme B). Tumor growth was measured every other day by caliper.
as §2, with “2-4” for “four”, “Etoposide” for “Chemo”, “injections; etoposide:” for “injections, Etoposide:”, “week, or” for “week (dosing scheme A) OR”, “weeks.” for “weeks (dosing scheme B).”, “caliper. All mouse experiments were approved by the CHB Animal Care and Use Committee and by the Dana-Farber Cancer Institute Institutional Animal Care and Use Committee, both accredited by AAALAC, and were performed in accordance with relevant institutional and national guidelines and regulations.” for “caliper.”

H23 xenografts = assay: Xenograft tumor growth in nude mice; assay type: in vivo, Foxn1nu (nude) mice; conditions: H23, DZNep 1 mg/kg/day twice per week for 2 weeks (dosing scheme B)
Method: as §1, §2
as §2, with “2-4” for “four”, “Etoposide” for “Chemo”, “injections; etoposide:” for “injections, Etoposide:”, “week, or” for “week (dosing scheme A) OR”, “weeks.” for “weeks (dosing scheme B).”, “caliper. All mouse experiments were approved by the CHB Animal Care and Use Committee and by the Dana-Farber Cancer Institute Institutional Animal Care and Use Committee, both accredited by AAALAC, and were performed in accordance with relevant institutional and national guidelines and regulations.” for “caliper.”

PC9 = assay: Etoposide dose response curves in the presence of 5 μM cisplatin; assay type: cell-based, human; conditions: PC9 (sensitized), combination with DZNep
Method: (§3) FIG. 25A is a Waterfall plot of cell line growth in 1 μM DZNep for 4 days compared to untreated cells, n=3-5 biological replicates, * indicates p<0.04, ** p<0.007. […] FIG. 25C is a pair of representative etoposide dose response curves performed in the presence of 5 μM cisplatin, the sensitized line PC9 (4.2-fold decrease, p<0.0001) and the protected line H23 (3.4-fold increase, p<0.0001) are shown.
(§4) Cell lines were dissociated, counted and plated at 5000 cells per well in flat bottom opaque tissue culture treated 96 well plates (CytoOne). Edge wells were filled with PBS. The following day, 2× drug diluted in media was added to each well such that the well then contained 100 ul media with 1× drug concentration at the following doses: etoposide; 0, 0.1, 1, 3, 5, 7, 10, 50, 100, 500 μM, cisplatin; 0, 0.1, 1, 5, 10, 30, 70, 100, 500 μM, or doxorubicin; 0, 0.01, 0.1, 0.5, 1, 3, 5, 7, 10, 50 μM. After 4 days, CELLTITER-GLO™ (Promega) was added and luminescence was read on a BioTec plate reader to determine relative cell number in each well. Data were averaged for triplicate or quadruplicate technical replicates and normalized to the untreated wells. Results from three or four independent biological replicate experiments were input into GRAPHPAD PRISM™ software to extrapolate IC50 and s.e.m. of IC50 for a given cell line.

H23 = assay: as above; assay type: cell-based, human; conditions: H23 (protected), combination with DZNep
Method: as §3, §4

SMILES: Nc1nccc2c1ncn2[C@@H]1C=C(CO)[C@@H](O)[C@H]1O [DZNep, 3-Deazaneplanocin A]
- cell lines with reduced growth rates (human NSCLC lines): 11 out of 12
- average fewer cells in S phase vs etoposide alone ([1]; protected cell lines, 10 μM etoposide + 1 μM DZNep, 4 days): 10%
- average fewer cells in S phase vs etoposide alone ([1]; protected lines, 5 μM etoposide, DZNep 1 μM or shEZH2, 4 days): 14%
- average more cells in S phase in response to DZNep ([1]; sensitized cell lines, 10 μM etoposide + 1 μM DZNep, 4 days): 20%
- average more cells in S phase ([1]; sensitized lines, 5 μM etoposide, DZNep 1 μM or shEZH2, 4 days): 14%
- efficacy of dosing scheme B (H157 xenografts; H157, DZNep 1 mg/kg/day twice per week for 2 weeks): not as effective
- tumor burden, DZNep alone vs untreated/vehicle (H157 xenografts; H157 xenografts, DZNep 2 mg/kg/day twice in first week (dosing scheme A)): effective at reducing tumor burden; also recorded: weakly effective
- sensitivity of xenografts to DZNep as a single therapy (H23 xenografts): very sensitive; also recorded: sensitive
- decrease in etoposide IC50 (PC9): 4.2 fold
- increase in etoposide IC50 (H23): 3.4 fold
